The text below walks through data of paper PMC10539361, “Allosteric modulation of the fish taste receptor type 1 (T1R) family by the extracellular chloride ion” (Scientific Reports, 2023).

One assay has as its target T1, mfT1R2a/mfT1R3 (Oryzias latipes, UniProt Q2MHK2+Q2MHK5).
T1 sequence (Q2MHK5 20-819): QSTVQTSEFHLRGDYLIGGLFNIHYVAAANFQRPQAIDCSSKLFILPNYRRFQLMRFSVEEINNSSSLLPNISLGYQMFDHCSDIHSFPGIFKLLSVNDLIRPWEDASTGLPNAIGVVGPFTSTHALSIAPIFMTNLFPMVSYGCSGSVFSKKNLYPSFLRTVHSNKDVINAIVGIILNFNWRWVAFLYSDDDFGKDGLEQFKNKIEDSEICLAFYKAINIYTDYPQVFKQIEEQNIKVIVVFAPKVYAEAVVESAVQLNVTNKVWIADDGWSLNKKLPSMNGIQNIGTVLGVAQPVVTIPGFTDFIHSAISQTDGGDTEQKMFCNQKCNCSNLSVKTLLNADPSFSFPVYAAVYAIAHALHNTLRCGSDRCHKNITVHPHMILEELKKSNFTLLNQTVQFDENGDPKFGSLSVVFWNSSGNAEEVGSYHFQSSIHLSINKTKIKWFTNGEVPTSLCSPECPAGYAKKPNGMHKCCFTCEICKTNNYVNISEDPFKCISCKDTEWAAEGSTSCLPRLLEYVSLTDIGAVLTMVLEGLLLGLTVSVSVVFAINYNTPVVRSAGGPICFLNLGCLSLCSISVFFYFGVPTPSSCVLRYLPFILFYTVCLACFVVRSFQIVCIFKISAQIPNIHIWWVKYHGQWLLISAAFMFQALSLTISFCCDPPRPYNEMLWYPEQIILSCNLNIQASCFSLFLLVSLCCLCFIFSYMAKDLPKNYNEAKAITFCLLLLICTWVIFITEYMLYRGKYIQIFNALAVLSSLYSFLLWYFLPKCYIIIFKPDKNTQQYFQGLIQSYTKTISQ
T1 sequence (Q2MHK2 20-853): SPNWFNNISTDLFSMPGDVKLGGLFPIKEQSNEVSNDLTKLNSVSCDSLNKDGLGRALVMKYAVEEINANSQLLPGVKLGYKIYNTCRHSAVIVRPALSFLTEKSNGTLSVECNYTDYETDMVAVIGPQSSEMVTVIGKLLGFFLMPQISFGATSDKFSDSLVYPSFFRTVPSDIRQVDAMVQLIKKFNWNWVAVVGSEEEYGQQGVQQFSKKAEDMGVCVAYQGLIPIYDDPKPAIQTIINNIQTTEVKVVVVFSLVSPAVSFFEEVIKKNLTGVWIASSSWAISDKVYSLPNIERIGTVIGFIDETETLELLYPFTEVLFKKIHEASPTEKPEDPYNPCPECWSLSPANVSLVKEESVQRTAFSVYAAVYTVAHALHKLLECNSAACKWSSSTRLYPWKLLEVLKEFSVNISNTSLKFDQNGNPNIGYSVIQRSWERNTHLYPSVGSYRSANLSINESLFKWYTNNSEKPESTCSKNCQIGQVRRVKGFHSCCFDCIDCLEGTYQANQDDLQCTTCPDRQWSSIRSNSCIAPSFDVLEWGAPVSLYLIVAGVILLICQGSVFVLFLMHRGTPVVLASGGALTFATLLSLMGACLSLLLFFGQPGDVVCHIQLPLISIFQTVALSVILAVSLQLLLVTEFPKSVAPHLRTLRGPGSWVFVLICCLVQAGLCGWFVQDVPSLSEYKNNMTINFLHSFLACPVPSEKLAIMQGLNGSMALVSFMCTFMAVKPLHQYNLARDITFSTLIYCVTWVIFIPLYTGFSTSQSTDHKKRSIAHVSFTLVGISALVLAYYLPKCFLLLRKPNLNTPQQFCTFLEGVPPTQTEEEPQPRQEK
In words: Ca2+ mobilization dose-response assay, stable cells expressing mfT1R2a/mfT1R3 with G16gust44.

For a further assay, the target named is mfT1R2a/mfT1R3 T105E (Oryzias latipes, UniProt Q2MHK2+Q2MHK5, Q2MHK2:T105E). In words: cell-based. The note with it: EC50, [Cl-]o=10 mM; unit inferred.
Another assay concerns the target mfT1R2a K265A/mfT1R3 (Oryzias latipes, UniProt Q2MHK2+Q2MHK5, Q2MHK5:K265A). In words: cell-based. The note with it: EC50, [Cl-]o=10 mM; no unit printed with values, x-axis title L-Gln [M].
In the next assay the target is mfT1R2a K295P/mfT1R3 (Oryzias latipes, UniProt Q2MHK2+Q2MHK5, Q2MHK5:K295P). The assay can be described thus: cell-based. The note with it: EC50, [Cl-]o=10 mM; no unit printed with values, x-axis title L-Gln [M].
Another assay has as its target mfT1R2a K265E/mfT1R3 (Oryzias latipes, UniProt Q2MHK2+Q2MHK5, Q2MHK5:K265E). In words: cell-based. The note with it: EC50, [Cl-]o=10 mM; no unit printed with values, x-axis title L-Gln [M].
The test system of the next assay is mfT1R2b E260K/mfT1R3. The format is cell-based, medaka fish. The settings on record: 10 mM vs high Cl- buffer.
Another assay concerns mfT1R2b E260A/mfT1R3. The format is cell-based, medaka fish. The note with it: 10 mM vs high Cl- buffer.
The next assay deals with mfT1R2c/mfT1R3 T105E (Oryzias latipes, UniProt Q2MHK2+Q2MHK3, Q2MHK2:T105E). In words: cell-based. The settings on record: EC50, [Cl-]o=10 mM; unit inferred.
The next assay concerns mfT1R2b/mfT1R3. In words: Ca2+ mobilization dose-response assay, stable cells expressing mfT1R2b/mfT1R3 with G16gust44. The note with it: 10 mM vs 141.4 mM Cl- buffer. Background: A change in cytosolic calcium serves as a functional read-out for many receptors and channels.
The next assay addresses mfT1R2c/mfT1R3 (Oryzias latipes, UniProt Q2MHK2+Q2MHK3). In words: Ca2+ mobilization dose-response assay, stable cells expressing mfT1R2c/mfT1R3 with G16gust44.
Another assay concerns the target T2, zfT1R2b/zfT1R3 (Danio rerio, UniProt A0A8M1NDZ5+Q2MHK9).
T2 sequence (A0A8M1NDZ5 18-823): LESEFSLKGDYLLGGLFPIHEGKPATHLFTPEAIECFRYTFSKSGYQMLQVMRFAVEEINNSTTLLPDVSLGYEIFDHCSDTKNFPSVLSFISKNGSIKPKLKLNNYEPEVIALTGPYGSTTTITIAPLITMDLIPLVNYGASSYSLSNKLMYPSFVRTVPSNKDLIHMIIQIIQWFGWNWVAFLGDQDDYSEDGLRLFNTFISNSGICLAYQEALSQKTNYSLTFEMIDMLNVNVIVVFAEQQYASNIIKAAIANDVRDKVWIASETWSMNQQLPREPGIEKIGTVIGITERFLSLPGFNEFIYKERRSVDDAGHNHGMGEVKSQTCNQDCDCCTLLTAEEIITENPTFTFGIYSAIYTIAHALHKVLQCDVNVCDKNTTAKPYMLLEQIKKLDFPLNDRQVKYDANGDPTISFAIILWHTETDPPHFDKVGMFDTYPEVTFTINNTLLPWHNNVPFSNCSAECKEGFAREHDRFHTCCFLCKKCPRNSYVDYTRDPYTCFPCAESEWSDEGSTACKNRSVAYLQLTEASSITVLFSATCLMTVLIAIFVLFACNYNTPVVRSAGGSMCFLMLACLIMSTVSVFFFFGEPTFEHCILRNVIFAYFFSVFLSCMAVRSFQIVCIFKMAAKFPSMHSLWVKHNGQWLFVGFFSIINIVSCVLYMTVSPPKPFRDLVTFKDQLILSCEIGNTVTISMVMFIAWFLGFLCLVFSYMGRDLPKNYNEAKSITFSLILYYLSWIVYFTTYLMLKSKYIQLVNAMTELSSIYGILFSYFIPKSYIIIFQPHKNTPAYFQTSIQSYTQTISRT
T2 sequence (Q2MHK9 25-850): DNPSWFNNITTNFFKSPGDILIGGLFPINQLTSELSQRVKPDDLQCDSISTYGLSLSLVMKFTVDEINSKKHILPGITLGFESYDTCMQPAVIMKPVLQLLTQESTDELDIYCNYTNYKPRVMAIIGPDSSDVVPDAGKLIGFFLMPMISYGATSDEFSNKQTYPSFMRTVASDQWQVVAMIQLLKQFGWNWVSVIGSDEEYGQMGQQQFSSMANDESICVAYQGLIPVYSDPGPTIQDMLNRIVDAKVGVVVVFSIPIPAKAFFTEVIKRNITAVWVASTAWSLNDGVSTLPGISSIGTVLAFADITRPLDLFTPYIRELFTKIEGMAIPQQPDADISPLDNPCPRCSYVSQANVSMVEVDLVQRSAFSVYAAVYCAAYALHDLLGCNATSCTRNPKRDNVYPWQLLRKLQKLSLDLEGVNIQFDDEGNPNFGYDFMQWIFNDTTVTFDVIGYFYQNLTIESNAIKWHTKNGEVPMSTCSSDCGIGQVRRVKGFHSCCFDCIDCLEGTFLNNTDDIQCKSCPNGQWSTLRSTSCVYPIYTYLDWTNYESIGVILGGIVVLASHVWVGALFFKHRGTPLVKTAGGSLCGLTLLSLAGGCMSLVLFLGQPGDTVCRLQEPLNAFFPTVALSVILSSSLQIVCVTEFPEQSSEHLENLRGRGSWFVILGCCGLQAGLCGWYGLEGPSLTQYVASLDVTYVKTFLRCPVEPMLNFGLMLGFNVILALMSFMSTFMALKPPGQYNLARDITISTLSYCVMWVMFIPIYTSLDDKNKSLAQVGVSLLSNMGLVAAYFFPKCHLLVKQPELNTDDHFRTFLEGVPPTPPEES
The assay can be described thus: Ca2+ mobilization dose-response assay, stable cells expressing zfT1R2b/zfT1R3 with G16gust44. The note with it: 10 mM vs 141.4 mM Cl- buffer.

For a further assay, the target named is T3, zfT1R2a/zfT1R3 (Danio rerio, UniProt A0A8M1N8F9+Q2MHK9).
T3 sequence (A0A8M1N8F9 26-825): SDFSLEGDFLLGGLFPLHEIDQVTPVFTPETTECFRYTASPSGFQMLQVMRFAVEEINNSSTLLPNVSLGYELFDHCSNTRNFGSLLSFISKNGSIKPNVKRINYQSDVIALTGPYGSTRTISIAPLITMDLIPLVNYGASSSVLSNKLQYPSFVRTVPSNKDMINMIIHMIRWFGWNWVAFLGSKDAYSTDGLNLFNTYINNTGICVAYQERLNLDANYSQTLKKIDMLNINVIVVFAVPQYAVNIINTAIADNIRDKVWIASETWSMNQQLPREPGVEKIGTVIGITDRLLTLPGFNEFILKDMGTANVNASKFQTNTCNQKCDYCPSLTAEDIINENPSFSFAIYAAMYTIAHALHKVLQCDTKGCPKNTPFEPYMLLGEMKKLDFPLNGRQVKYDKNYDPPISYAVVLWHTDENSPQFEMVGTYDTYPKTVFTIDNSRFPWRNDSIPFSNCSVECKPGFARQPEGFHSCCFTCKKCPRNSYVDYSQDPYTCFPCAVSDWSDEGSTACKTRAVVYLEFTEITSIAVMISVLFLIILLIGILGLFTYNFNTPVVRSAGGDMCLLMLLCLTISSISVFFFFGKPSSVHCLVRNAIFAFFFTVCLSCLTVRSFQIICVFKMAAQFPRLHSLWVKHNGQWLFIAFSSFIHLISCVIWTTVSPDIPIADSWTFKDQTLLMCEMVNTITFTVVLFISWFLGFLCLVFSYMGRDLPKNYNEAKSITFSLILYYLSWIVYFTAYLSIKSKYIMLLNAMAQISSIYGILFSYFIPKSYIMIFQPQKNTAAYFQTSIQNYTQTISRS
T3 sequence (Q2MHK9 25-850): T2 sequence (Q2MHK9 25-850)
In words: Ca2+ mobilization dose-response assay, stable cells expressing zfT1R2a/zfT1R3 with G16gust44.

The mark [1] stands for this setting: EC50, [Cl-]o=10 mM, unit inferred.

mfT1R2c/mfT1R3, sequence (Q2MHK3 22-818, one chain of several): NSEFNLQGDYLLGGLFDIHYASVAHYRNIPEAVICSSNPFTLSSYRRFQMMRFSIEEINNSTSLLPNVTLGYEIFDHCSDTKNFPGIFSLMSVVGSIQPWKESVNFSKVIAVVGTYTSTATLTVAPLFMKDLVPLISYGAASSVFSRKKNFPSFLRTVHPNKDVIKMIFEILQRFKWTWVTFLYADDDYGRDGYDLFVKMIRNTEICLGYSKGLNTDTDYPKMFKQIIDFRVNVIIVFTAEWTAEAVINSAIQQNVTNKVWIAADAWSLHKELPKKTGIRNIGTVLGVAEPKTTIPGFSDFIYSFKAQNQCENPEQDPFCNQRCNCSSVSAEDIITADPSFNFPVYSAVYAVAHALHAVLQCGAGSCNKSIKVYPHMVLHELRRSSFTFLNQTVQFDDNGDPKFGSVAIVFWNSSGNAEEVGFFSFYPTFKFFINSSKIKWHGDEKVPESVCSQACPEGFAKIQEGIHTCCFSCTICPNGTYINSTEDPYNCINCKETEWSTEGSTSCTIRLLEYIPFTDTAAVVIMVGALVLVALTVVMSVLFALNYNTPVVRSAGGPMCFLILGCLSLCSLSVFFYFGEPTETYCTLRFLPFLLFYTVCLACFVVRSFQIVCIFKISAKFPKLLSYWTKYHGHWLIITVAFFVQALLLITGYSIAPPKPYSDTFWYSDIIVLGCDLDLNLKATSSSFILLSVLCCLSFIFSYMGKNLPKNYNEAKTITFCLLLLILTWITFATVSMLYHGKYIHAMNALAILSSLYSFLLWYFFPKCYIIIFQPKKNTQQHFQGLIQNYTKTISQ
mfT1R2c/mfT1R3 T105E, sequence (Q2MHK2 entry or part of it T105E): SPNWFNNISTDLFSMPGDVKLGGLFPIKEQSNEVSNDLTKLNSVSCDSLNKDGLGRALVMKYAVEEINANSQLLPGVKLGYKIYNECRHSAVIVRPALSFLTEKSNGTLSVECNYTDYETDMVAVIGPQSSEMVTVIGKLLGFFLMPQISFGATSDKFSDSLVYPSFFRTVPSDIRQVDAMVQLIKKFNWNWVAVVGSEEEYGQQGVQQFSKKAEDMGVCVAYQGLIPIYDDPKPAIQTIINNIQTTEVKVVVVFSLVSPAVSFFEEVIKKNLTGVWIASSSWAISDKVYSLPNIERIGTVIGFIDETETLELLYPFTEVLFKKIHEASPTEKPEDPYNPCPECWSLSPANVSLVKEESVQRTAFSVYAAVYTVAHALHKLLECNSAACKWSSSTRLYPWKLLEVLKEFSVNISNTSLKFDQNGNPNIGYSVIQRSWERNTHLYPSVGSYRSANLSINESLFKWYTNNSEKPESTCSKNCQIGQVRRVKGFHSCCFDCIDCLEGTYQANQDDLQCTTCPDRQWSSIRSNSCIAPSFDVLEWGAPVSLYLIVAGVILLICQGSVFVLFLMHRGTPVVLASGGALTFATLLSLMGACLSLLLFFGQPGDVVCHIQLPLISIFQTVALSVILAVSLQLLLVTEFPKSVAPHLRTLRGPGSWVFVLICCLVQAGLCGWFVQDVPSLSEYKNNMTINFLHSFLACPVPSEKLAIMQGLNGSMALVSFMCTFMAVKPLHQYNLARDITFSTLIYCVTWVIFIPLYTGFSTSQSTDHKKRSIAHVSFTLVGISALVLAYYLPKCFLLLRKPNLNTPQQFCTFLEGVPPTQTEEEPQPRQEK
mfT1R2c/mfT1R3 T105E, sequence (Q2MHK3 entry or part of it): as the sequence (Q2MHK3 22-818, one chain of several) above
mfT1R2a K265A/mfT1R3, sequence (Q2MHK5 entry or part of it K265A, one chain of several): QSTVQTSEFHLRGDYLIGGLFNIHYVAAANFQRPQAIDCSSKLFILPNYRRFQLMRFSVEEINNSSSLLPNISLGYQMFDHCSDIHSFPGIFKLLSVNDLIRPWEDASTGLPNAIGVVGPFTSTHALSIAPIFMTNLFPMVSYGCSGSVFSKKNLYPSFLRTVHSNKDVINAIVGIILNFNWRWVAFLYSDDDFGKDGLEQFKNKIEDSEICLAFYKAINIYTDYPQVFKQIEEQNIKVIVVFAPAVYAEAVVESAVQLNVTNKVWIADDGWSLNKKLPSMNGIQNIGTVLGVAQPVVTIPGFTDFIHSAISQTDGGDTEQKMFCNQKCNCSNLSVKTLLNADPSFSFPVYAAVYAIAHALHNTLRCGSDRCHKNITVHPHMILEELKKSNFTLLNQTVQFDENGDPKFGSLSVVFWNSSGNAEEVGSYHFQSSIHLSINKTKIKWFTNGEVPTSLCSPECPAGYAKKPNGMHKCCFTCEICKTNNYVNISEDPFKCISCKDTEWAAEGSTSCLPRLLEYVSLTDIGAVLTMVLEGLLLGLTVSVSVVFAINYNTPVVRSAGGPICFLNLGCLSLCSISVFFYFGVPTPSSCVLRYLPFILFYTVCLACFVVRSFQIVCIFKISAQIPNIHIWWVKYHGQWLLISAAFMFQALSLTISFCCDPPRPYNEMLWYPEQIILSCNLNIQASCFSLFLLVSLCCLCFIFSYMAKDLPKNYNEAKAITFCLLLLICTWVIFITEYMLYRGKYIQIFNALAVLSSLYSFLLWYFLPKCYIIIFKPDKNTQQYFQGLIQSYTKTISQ
mfT1R2a K295P/mfT1R3, sequence (Q2MHK5 entry or part of it K295P, one chain of several): as the sequence (Q2MHK5 entry or part of it K265A, one chain of several) above, with A246K, K276P counted along it
mfT1R2a K265E/mfT1R3, sequence (Q2MHK5 entry or part of it K265E, one chain of several): as the sequence (Q2MHK5 entry or part of it K265A, one chain of several) above, with A246E counted along it
mfT1R2a/mfT1R3 T105E, sequence (Q2MHK2 entry or part of it T105E, one chain of several): as the sequence (Q2MHK2 entry or part of it T105E) above
Method for mfT1R2a K265A/mfT1R3: (§1) The buffers with lower Cl^− were prepared by progressively replacing NaCl, KCl, CaCl2 and MgCl2 in the buffer with gluconate equivalents[20]. The pH was adjusted to 7.4 with NaOH. Ligands were diluted with the assay buffers at the desired concentrations.
(§2) Measurements of the responses of the cells by cell-based assay based on the intracellular Ca^2+ mobilization were carried out as described previously with some modifications[20],[34],[46],[47]. […] The cells were seeded in 96-well plates (clear-bottomed CellBIND surface plate, Corning, Glendale, AZ, USA) coated with ε-poly-L-lysine (Cosmo Bio, Tokyo, Japan) at approximately 70,000 cells per well. After 20 h, the medium was removed and replaced with high Cl^− buffer. […] Fluorescence changes (i.e., excitation at 485 nm and emission at 525 nm with a cutoff at 515 nm) were monitored at 2 s intervals. […] The response of each well was determined as ∆RFU (delta relative fluorescent units), which was calculated as (maximum fluorescent value)—(minimum fluorescent value). […] Dose‒response fitting curves were calculated by Prism 9 (GraphPad Software, San Diego, CA) using nonlinear regression (log(agonist) vs. response—variable slope), based on the integrated data from the several independent experiments.
Method for mfT1R2a K265E/mfT1R3: as §1
(§3) Measurements of the responses of the cells by cell-based assay based on the intracellular Ca^2+ mobilization were carried out as described previously with some modifications[20],[34],[46],[47]. Cell lines stably expressing T1R2, T1R3 and chimeric G-protein α-subunit, G16gust44[48], were constructed using the Flp-In pcDNA5/FRT complete system (Thermo Fisher Scientific, Waltham, MA, USA) described in our previous studies[34],[46]. […] Fluorescence changes (i.e., excitation at 485 nm and emission at 525 nm with a cutoff at 515 nm) were monitored at 2 s intervals. […] The response of each well was determined as ∆RFU (delta relative fluorescent units), which was calculated as (maximum fluorescent value)—(minimum fluorescent value). […] Dose‒response fitting curves were calculated by Prism 9 (GraphPad Software, San Diego, CA) using nonlinear regression (log(agonist) vs. response—variable slope), based on the integrated data from the several independent experiments.
Method for mfT1R2a K295P/mfT1R3: as §1, §3
Method for mfT1R2a/mfT1R3 T105E: as §1, §3
Method for mfT1R2b E260A/mfT1R3: as §1, §2
Method for mfT1R2b E260K/mfT1R3: as §1, §2
Method for mfT1R2b/mfT1R3: as §1, §2
Method for mfT1R2c/mfT1R3 T105E: as §1, §2
Method for zfT1R2a/zfT1R3: as §1
(§4) Measurements of the responses of the cells by cell-based assay based on the intracellular Ca^2+ mobilization were carried out as described previously with some modifications[20],[34],[46],[47]. […] The cells were seeded in 96-well plates (clear-bottomed CellBIND surface plate, Corning, Glendale, AZ, USA) coated with ε-poly-L-lysine (Cosmo Bio, Tokyo, Japan) at approximately 70,000 cells per well. After 20 h, the medium was removed and replaced with high Cl^− buffer. After 3 h 30 min incubation at 27 °C, cells were loaded with 5 µM calcium-indicator dye Fluo-8 AM (AAT Bioquest, Sunnyvale, CA, USA) diluted in high Cl^− buffer. After incubation for 30 min at 27 °C, the cells were washed with buffers containing appropriate concentrations of Cl^−. The cellular assay was initiated after 3–5 min of resting and was completed within 5 min. The measurements were made using FlexStation 3 (Molecular Devices, Sunnyvale, CA, USA) at 27 °C. Fluorescence changes (i.e., excitation at 485 nm and emission at 525 nm with a cutoff at 515 nm) were monitored at 2 s intervals. A 100-µL aliquot of assay buffer supplemented with 2 × ligands was added at 20 s, and scanning was continued for an additional 40 s. The response of each well was determined as ∆RFU (delta relative fluorescent units), which was calculated as (maximum fluorescent value)—(minimum fluorescent value). […] Such normalized data from more than three independent experiments are reported as the mean ± standard error of the mean (SEM). Dose‒response fitting curves were calculated by Prism 9 (GraphPad Software, San Diego, CA) using nonlinear regression (log(agonist) vs. response—variable slope), based on the integrated data from the several independent experiments.
Method for zfT1R2b/zfT1R3: as §1, §4

By EC50 is commonly meant the concentration that produces a half-maximal response. Read a high EC50 as a less potent agent. Regarding `NC(=O)CC[C@H](N)C(=O)O` [L-Gln, L-glutamine], the “EC50 in 10 mM Cl- buffer relative to high Cl- buffer” value with mfT1R2a/mfT1R3 (10 mM vs 141.4 mM Cl- buffer) is “approximately 6.5 times higher”. Besides, the concentration giving a half-maximal response (EC50) at mfT1R2a/mfT1R3 (setting [1]) is 403 µM; at mfT1R2a/mfT1R3 T105E, 864 µM; at mfT1R2a K265A/mfT1R3, 0.000283 M; on mfT1R2a K295P/mfT1R3 it was 0.000368 M; on mfT1R2a K265E/mfT1R3, 0.000208 M.

`O=C(O)[C@@H]1CCCN1` [L-Pro, L-proline]: the “effect of [Cl-]o on sensitivity” value with mfT1R2b E260K/mfT1R3 and in the assay on mfT1R2b E260A/mfT1R3 was “hardly affected” throughout. The EC50 on mfT1R2c/mfT1R3 T105E stood at 26.3 µM; on mfT1R2c/mfT1R3 (setting [1]), 15 µM; at zfT1R2a/zfT1R3 (setting [1]), 437 µM. The “effect of anionic buffer composition on sensitivity” value in the assay with mfT1R2b/mfT1R3 is “hardly affected”. The “increase in EC50 in 10 mM Cl- buffer compared to high Cl- buffer” value at mfT1R2c/mfT1R3 (10 mM vs 141.4 mM Cl- buffer) is reported as “approximately threefold increase”. In addition, the “change of EC50 value with [Cl-]o” value at mfT1R2c/mfT1R3 (range from 10 to 80 mM [Cl-]o) is on record as “almost unchanged”. The “EC50 in 10 mM Cl- buffer relative to high Cl- buffer” value at zfT1R2b/zfT1R3 is reported as “approximately half”; at zfT1R2a/zfT1R3 (10 mM vs 141.4 mM Cl- buffer), “approximately 5 times higher”.
